The text below walks through data of patent US4942154A, “Steroidal glycolipids as host resistance stimulators against viral infection” (priority 1987, dated 1990).

Data set [1] has as its system HIV reverse transcriptase. As to conditions: cited from earlier work.
For data set [2] the following is noted: cited from earlier work; for adverse effects, toxicity, tolerability: clinical.
Data set [3] has as its system Mycobacterium aviumintracellulare. As to conditions: AIDS patients; cited from earlier work.
The subject of the next data set is Pseudomonas aeruginosa. The data set can be described thus: Pseudomonas aeruginosa in vivo protection study in cyclophosphamide-treated mice. More on the design: species or system CF1 female mice. As to conditions: for LD50 Actual: PA, CY +. The protocol:
(§1) Groups of 15-20 CF1 female mice (Charles River Breeding, Cambridge, Mass.) weighing 22-28 gm were injected intraperitoneally (i.p.) with cyclophosphamide (Cytoxan; CY) at 250 mg per kg body weight. One to two hours later they were typically injected again with the test material by the route specified. Four days later, the mice were divided into groups of five, each of which were injected i.p. with a different dilution of a suspension of Pseudomonas aeruginosa (Immunotype 1). The number of survivors was determined periodically and an estimate was made of the number of CFU of Pseudomonas organisms necessary to cause 50% lethality by the cumulative method of L. J. Reed and H. Muench (Am. J. Hygiene 27 (1938) 493-497). A protective index (P.I.) was defined as the LD50 for the mice receiving cyclophosphamide and the test compound divided by the LD50 for the mice receiving cyclophosphamide alone. All control mice were injected with aqueous vehicle in the same route and schedule as the test animals.
(§2) MATERIALS. All compounds for dosing were suspended in a sterile medium referred to as "aqueous vehicle" which contains 0.9% sodium chloride, 0.5% carboxymethyl cellulose, 0.4% Tween 80, and 0.9% benzyl alcohol unless otherwise stated. Test materials were evaluated via subcutaneous (s.c.), i.p., intramuscular (i.m.), orally (p.o.). and intravenous (i.v.) routes of administration. […]
(§3) INFECTION OF ANIMALS. All bacteria were inoculated i.p. to induce infection in the in vivo experiments. Candida albicans, however, was administrated i.v. Bacteria cultures were harvested in the log phase, washed with phosphate buffered saline (PBS, and resuspended in PBS containing 10% glycerol for freezing at -70° C. in 1 ml aliquots. The number of […] (cfu's) was determined before and after freezing. Frozen cultures were routinely thawed and diluted in sterile PBS just prior to inoculation. Viable cell counts were routinely done on thawed cultures the day of challenge to determine the number of cfu's. Candida albicans was stored in distilled water at room temperature. Viable cell counts were determined the day of testing.
(§4) The testing and results of 6-(5-cholesten-3β-yloxy)hexyl-1-thio-β-D-mannopyranoside (Example 2) against various organisms is shown in Table 2.

The test system of data set [4] is reverse transcriptase in several retroviruses. The settings on record: in vitro; cited from earlier work.
For the next data set, the system named is HIV. As to conditions: cited from earlier work.
The test system of data set [5] is AIDS / AIDS-related complex (ARC). As to conditions: human, in vivo; cited from earlier work.
For data set [6] the following is noted: in vivo; cited from earlier work.
The next data set deals with Staphylococcus aureus. The data set can be described thus: In vivo protection from Staphylococcus aureus infection in cyclophosphamide-treated mice. Set-up: species or system CF1 female mice. As to conditions: SA, CY +. The method, then: as §1
MATERIALS. All compounds for dosing were suspended in a sterile medium referred to as "aqueous vehicle" which contains 0.9% sodium chloride, 0.5% carboxymethyl cellulose, 0.4% Tween 80, and 0.9% benzyl alcohol unless otherwise stated. Test materials were evaluated via subcutaneous (s.c.), i.p., intramuscular (i.m.), orally (p.o.). and intravenous (i.v.) routes of administration. The initial test dose was 40 mg per kg per mouse, with each active compound subsequently titrated below this level.
as §3, §4

The test system of a further data set is Candida albicans. The data set can be described thus: In vivo protection from Candida albicans infection in cyclophosphamide-treated mice. More on the design: species or system CF1 female mice. As to conditions: CA, CY +. The method, then: as §1, §2
as §3, with “All bacteria were inoculated i.p. to induce infection in the in vivo experiments.” left out, “testing. […]” for “testing.”

The next data set has as its system Klebsiella pheumoniae. The data set can be described thus: In vivo protection from Klebsiella infection in cyclophosphamide-treated mice. More on the design: species or system CF1 female mice. As to conditions: KP; CY +; 40 mg/kg. The method, then: as §1, §2
The test system of data set [7] is Herpes Simplex Virus-1 (HSV1). The data set can be described thus: Antiviral experiment in mice infected IP with Herpes Simplex Virus-1. It is filed as in vivo, ICR mice. As to conditions: for Average Day of Death, Pre Treatment: HSV1 day 5; for Average Day of Death, Post Treatment: HSV1 prior to treatment. The protocol:
An antiviral experiment was conducted to compare treatment with 6-(5-Cholesten-3β-yloxy)hexyl 1-thio-β-D-mannopyranoside (Example 2) in mice infected IP with Herpes Simplex Virus-1 (HSV1) immediately before (post treatment) or after 5 days of treatment (pretreatment).
Ten mice (ICR, 20 gm, mixed sexes) were pretreated by SC injection of a 0.1 mL suspension of test compound twice a day for 4 days. On day 5, the mice were injected IP with 0.5 mL solution of HSV1 (Schloser, 10-5). The post treatment group was infected with HSV1 prior to administration of test compound. Day of death from time of infection with HSV1 was recorded for each mouse and average day of death per treatment group was calculated.

Data set [8] has as its system AIDS-related Kaposi's sarcoma. As to conditions: cited from earlier work.

Regarding `O=C(O)P(=O)(O)O` [Foscarnet, trisodium phosphonoformate], the “HIV reverse transcriptase inhibition” value in data set [1] is given as “Inhibits HIV reverse transcriptase activity in vitro at levels pharmacologically acceptable in vivo”. Also, in data set [2], the “adverse effects, toxicity, tolerability” value was “serious side effects”.
Turning to `CO[C@H]1/C=C/O[C@@]2(C)Oc3c(C)c(O)c4c(c3C2=O)C2=NC3(CCN(CC(C)C)CC3)NC2=C(NC(=O)/C(C)=C\C=C\[C@H](C)[C@H](O)[C@@H](C)[C@@H](O)[C@@H](C)[C@H](OC(C)=O)[C@@H]1C)C4=O` [Ansamycin, rifabutin], the “efficacy in opportunistic infection” value in data set [3] was “some efficacy”.
Consider “6-(20S-Amino-pregn-5-en-3β-yloxy)hexyl 1-thio-β-D-mannopyranoside [Example 14]”, for which the “Protective Index (log)” value in the data set on Pseudomonas aeruginosa (Table 3, Pseudomonas aeruginosa, cyclophosphamide-treated mice, dose not given) is given as 4.37 log.
Take “ammonium 21-tungsto-9-antimoniate [HPA-23]”: in [4], the “reverse transcriptase inhibition in retroviruses” value is “Inhibits reverse transcriptase in several retroviruses in vitro”. Moreover, in the data set on HIV, the “effect on HIV infectivity, growth or reproduction” value (from here on “effect on HIV infectivity”) was “some tendency to check the growth of HIV”. Besides, the “clinical effect in AIDS / ARC patients” value in data set [5] is “no therapeutic benefit has been documented in AIDS patients”.
Consider `CC(=O)Nc1ccc(C(=O)O)cc1.CC(=O)Nc1ccc(C(=O)O)cc1.CC(=O)Nc1ccc(C(=O)O)cc1.CC(O)CN(C)C.CC(O)CN(C)C.CC(O)CN(C)C.O=c1[nH]cnc2c1ncn2[C@@H]1O[C@H](CO)[C@@H](O)[C@H]1O` [Inosine pranobex, p-Acetamidobenzoic acid salt of (1-dimethylamino-2-propanol:inosinate complex 3:3:1 molar ratio)], for which, in data set [5], the “clinical effect in AIDS / ARC patients” value is recorded as “improve immune function in ARC patients”.
Turning to `CC(C)(N1CC1C#N)N1CC1C(N)=O` (stereo not shown) [Azimexon], the “clinical effect in AIDS / ARC patients” value in [5] was “improvements in symptoms and immune function in patients with ARC but not AIDS”. Further, the “adverse effects, toxicity, tolerability” value in data set [2] was “only toxic effect was mild hemolysis”.
On to `CC(C)(S)[C@@H](N)C(=O)O` [D-Penicillamine, 3-mercapto-D-valine], for which the “effect on HIV infectivity” value in the data set on HIV is “Inhibits HIV reproduction in humans”. Also, the “clinical effect in AIDS / ARC patients” value in [5] is listed as “suppressed the virus”. Moreover, the T cell levels entry in data set [2] (13 AIDS patients with perpetually swollen glands) is listed as “temporarily depressed T cell levels”.
Take `Cc1ccc(C(=O)Nc2ccc(S(=O)(=O)O)c3cc(S(=O)(=O)O)cc(S(=O)(=O)O)c23)cc1NC(=O)c1cccc(NC(=O)Nc2cccc(C(=O)Nc3cc(C(=O)Nc4ccc(S(=O)(=O)O)c5cc(S(=O)(=O)O)cc(S(=O)(=O)O)c45)ccc3C)c2)c1` [Suramin]: in data set [1], the “HIV reverse transcriptase inhibition” value was “Potent inhibitor of HIV reverse transcriptase”. Besides, the “clinical effect in AIDS / ARC patients” value in data set [5] was “little or no evidence of clinical improvement or immunologic recovery”.
Take `Cc1cn([C@H]2C[C@H](N=[N+]=[N-])[C@@H](CO)O2)c(=O)[nH]c1=O` [Azidothymidine, 3'-azido-3'-deoxythymidine]: the “clinical effect in AIDS / ARC patients” value in [5] is on record as “First drug to show promise in prolonging lives of patients with AIDS or AIDS-related complex (ARC)”. Also, in [6], the “central nervous system penetration” value is given as “effectively penetrates central nervous system”.
`NC(=O)c1ncn([C@@H]2O[C@H](CO)[C@@H](O)[C@H]2O)n1` [Ribavirin, 1-β-D-ribofuranosyl-1,2,4-triazole-3-carboxamide]: the “clinical effect in AIDS / ARC patients” value in [5] is “inhibited viral replication and improved immune function in AIDS patients”.
As for `CC(C)CCC[C@@H](C)[C@H]1CC[C@H]2[C@@H]3CC=C4C[C@@H](OCCCCCCS[C@@H]5O[C@H](CO)[C@@H](O)[C@H](O)[C@@H]5O)CC[C@]4(C)[C@H]3CC[C@]12C` [Example 2, 6-(5-Cholesten-3β-yloxy)hexyl 1-thio-β-D-mannopyranoside], the “LD50 Actual” value in the data set with Pseudomonas aeruginosa (10 mg/kg) is given as 3.2 × 10^4 CFU; with Pseudomonas aeruginosa (20 mg/kg) it was 3.2 × 10^5 CFU; in the data set with Pseudomonas aeruginosa (40 mg/kg) it was 1.22 × 10^6 CFU; in the data set with Pseudomonas aeruginosa (80 mg/kg), 2.59 × 10^6 CFU; with Staphylococcus aureus (5 mg/kg), 3.38 × 10^5 CFU; with Staphylococcus aureus (10 mg/kg), 1.04 × 10^6 CFU. Moreover, the “LD50 Actual” value is 2.38 × 10^6 CFU in the data set on Staphylococcus aureus (20 mg/kg); 1.58 × 10^7 CFU in the data set on Staphylococcus aureus (40 mg/kg); 3.68 × 10^4 CFU in the data set with Candida albicans (10 mg/kg); 5.2 × 10^4 CFU in the data set on Candida albicans (20 mg/kg); 7.88 × 10^4 CFU with Candida albicans (40 mg/kg); 4.73 × 10^7 CFU in the data set on Klebsiella pheumoniae. For the same compound, the “P.I. (log)” value in the data set on Klebsiella pheumoniae worked out at 1.12 log. For the same compound, the “Average Day of Death, Pre Treatment” value in [7] (0.8 mg/kg SC twice a day for 4 days, P 0.797) amounted to 8.6 days; in data set [7] (3.1 mg/kg SC twice a day for 4 days, P 0.348), 7.1 days; in [7] (12.5 mg/kg SC twice a day for 4 days, P 0.725), 8.0 days; in data set [7] (50 mg/kg SC twice a day for 4 days, P 0.003) it was 11.0 days. The “Average Day of Death, Post Treatment” value in [7] (0.8 mg/kg SC twice a day) was determined as 9.1 days; in data set [7] (3.1 mg/kg SC twice a day), 6.3 days; in data set [7] (12.5 mg/kg SC twice a day), 7.5 days; in data set [7] (50 mg/kg SC twice a day), 6.4 days. In addition, the “protection from fatal viral infection over placebo” value in [7] (50 mg/kg twice a day for four days, by day of death) is on record as “statistically enhanced protection from fatal viral infection over placebo treated animals”. Also, in data set [7] (pretreated mice versus post treatment group), the “protection, pretreated over post treatment group” value is on record as “statistically enhanced protection over the post treatment group”.
Turning to α-Interferon, the “effect on HIV infectivity” value in the data set on HIV is “Checks the growth of HIV in vitro”. The tumor regression entry in data set [8] is given as “induced tumor regression in some AIDS-related Kaposi's sarcoma cases”.
